From ChEMBL document CHEMBL1201862, “PubChem BioAssay data set” (2004) come the findings set out here.

Test systems include A498; SN12C; M14; NCI-H522; Hs-578T; EKVX; UACC-257; OVCAR-3; MOLT-4; RPMI-8226; MDA-MB-435; NCI-H23; CAKI-1; PC-3; NCI/ADR-RES; SR; MCF7; SK-OV-3; UACC-62; NCI-H226.
Assay in all cases: growth of human tumour cells (NCI), 48 h

Each structure is given as a SMILES string. Where a name gives a salt, the structure may show the parent alone.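 Five concentrations, 48 hours, 96-well plates. The concentration for 50% growth inhibition is given as GI50.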 Activity calls are given as the source filed them. No stated cut-off is given here; in the data, active = GI50 up to about 1.1 µM and inactive = higher.

For `Cc1cc2cc3c(cc2c(-c2ccc([N+](=O)[O-])cc2)n1)OCO3`, the GI50 with A498 is > 100 µM (inactive); in the assay with SN12C, 28.7 µM (inactive); in the assay on M14, 88.7 µM (inactive); in the assay on NCI-H522 it was 14.4 µM (inactive); with Hs-578T it was 23.3 µM (inactive); in the assay with EKVX, 62.2 µM (inactive). Further, the GI50 is 80.2 µM (inactive) in the assay with UACC-257; 55.2 µM (inactive) in the assay with OVCAR-3; 22.5 µM (inactive) in the assay with MOLT-4; 35.8 µM (inactive) in the assay with RPMI-8226; 65.9 µM (inactive) with MDA-MB-435; 45 µM (inactive) in the assay on NCI-H23. Besides, the GI50 in the assay on CAKI-1 was 38.4 µM (inactive); in the assay with PC-3, 44.7 µM (inactive); with NCI/ADR-RES, 44.6 µM (inactive); in the assay with SR it was 27.9 µM (inactive); in the assay with MCF7, 37.8 µM (inactive); in the assay with SK-OV-3, 25.6 µM (inactive). In addition, the GI50 in the assay on UACC-62 is 20.6 µM (inactive); with NCI-H226, 24.8 µM (inactive).
Take `CCn1c2ccccc2c2ccc(C3C4C(=O)N(c5cccc6ccccc56)C(=O)C4ON3C(C(N)=O)c3ccccc3)cc21` (stereo not drawn): the GI50 with A498 was 2.63 µM (inactive); in the assay on SN12C, 16.7 µM (inactive); with M14 it was 19.1 µM (inactive); with NCI-H522 it was > 25 µM (inactive); with Hs-578T, > 25 µM (inactive); with EKVX it was 12.9 µM (inactive). The GI50 in the assay on UACC-257 is 7.73 µM (inactive); with OVCAR-3 it was 13.7 µM (inactive); with MOLT-4, 7.53 µM (inactive); with MDA-MB-435 it was 10.2 µM (inactive); in the assay on NCI-H23, 24 µM (inactive); with CAKI-1, 4.66 µM (inactive). In addition, the GI50 in the assay on PC-3 was 14.2 µM (inactive); in the assay with NCI/ADR-RES it was > 25 µM (inactive); in the assay on SR, 9.12 µM (inactive); in the assay with MCF7, 8.38 µM (inactive); in the assay with SK-OV-3, > 25 µM (inactive); in the assay with UACC-62 it was 9.04 µM (inactive). Besides, the GI50 in the assay on NCI-H226 is 2.76 µM (inactive).
On to `CCOP(=O)(OCC)C(Nc1ccc(F)cc1)c1cccc([N+](=O)[O-])c1` (stereo not drawn), for which the GI50 was > 100 µM (inactive) with A498; > 100 µM (inactive) in the assay with SN12C; 79.1 µM (inactive) in the assay on M14; 63.1 µM (inactive) in the assay with NCI-H522; 82.8 µM (inactive) in the assay with Hs-578T; 90.4 µM (inactive) in the assay with EKVX. Also, the GI50 in the assay with UACC-257 is > 100 µM (inactive); in the assay with OVCAR-3 it was > 100 µM (inactive); in the assay on MOLT-4, 37.2 µM (inactive); with RPMI-8226 it was 76.9 µM (inactive); in the assay on MDA-MB-435 it was > 100 µM (inactive); in the assay on NCI-H23 it was > 100 µM (inactive). For the same compound, the GI50 in the assay on CAKI-1 was > 100 µM (inactive); in the assay with PC-3, 67.5 µM (inactive); in the assay on NCI/ADR-RES, 47.1 µM (inactive); in the assay on SR, 93.5 µM (inactive); in the assay with MCF7, > 100 µM (inactive); in the assay on SK-OV-3, > 100 µM (inactive). For the same compound, the results for the GI50 with UACC-62 and in the assay with NCI-H226 were 54.8 µM (inactive) and > 100 µM (inactive), respectively.
In the case of `Fc1cc(C2=C[C@H](c3ccc(Cl)cc3)NC(=S)N2)c(Cl)cc1Cl`, the GI50 was 27.7 µM (inactive) in the assay with A498; 29.3 µM (inactive) with SN12C; 54.3 µM (inactive) with M14; 34 µM (inactive) in the assay with NCI-H522; > 100 µM (inactive) in the assay on Hs-578T; 31.6 µM (inactive) with EKVX. Further, the GI50 with UACC-257 was 31.6 µM (inactive); in the assay on OVCAR-3 it was 33.1 µM (inactive); with MOLT-4 it was 15.6 µM (inactive); with RPMI-8226, 14.9 µM (inactive); in the assay with MDA-MB-435, 43.9 µM (inactive); in the assay with NCI-H23, 63.8 µM (inactive). Moreover, the GI50 with CAKI-1 was 43 µM (inactive); with PC-3, 28.3 µM (inactive); in the assay on NCI/ADR-RES, 64.1 µM (inactive); in the assay on SR it was 40.6 µM (inactive); in the assay with MCF7 it was 31.2 µM (inactive); in the assay on SK-OV-3, > 100 µM (inactive). Also, the values for the GI50 with UACC-62 and in the assay on NCI-H226 were 57 µM (inactive) and 88.7 µM (inactive), respectively.
On to `C[C@@H](CCO)OC1OC(COC(=O)C(C)(C)C)C(OC(=O)C(C)(C)C)C(OC(=O)C(C)(C)C)C1OC(=O)C(C)(C)C` (stereo partly drawn), for which the GI50 was > 100 µM (inactive) in the assay with A498; 22.1 µM (inactive) in the assay with SN12C; 56.5 µM (inactive) with M14; 11.7 µM (inactive) in the assay on NCI-H522; 20.7 µM (inactive) in the assay on Hs-578T; 48.4 µM (inactive) in the assay on EKVX. Also, the GI50 in the assay on UACC-257 is 25.5 µM (inactive); with OVCAR-3 it was 86.7 µM (inactive); in the assay on MOLT-4 it was 12.9 µM (inactive); with RPMI-8226 it was 15.5 µM (inactive); in the assay on MDA-MB-435, 34.5 µM (inactive); in the assay on NCI-H23 it was > 100 µM (inactive). Besides, the GI50 in the assay with CAKI-1 is 5.97 µM (inactive); with PC-3, 22.2 µM (inactive); in the assay on NCI/ADR-RES, > 100 µM (inactive); with SR, 84.7 µM (inactive); in the assay on MCF7, 15.1 µM (inactive); in the assay with SK-OV-3, 58.7 µM (inactive). Further, the figures for the GI50 in the assay on UACC-62 and in the assay on NCI-H226 were 48 µM (inactive) and 20.9 µM (inactive), respectively.
For `C/C(=N\NC(=[Se])N1CCN(c2ccccn2)CC1)c1ccccn1`, the GI50 is 4.51 µM (inactive) in the assay with A498; 0.222 µM (active) with SN12C; 0.102 µM (active) in the assay on M14; 0.125 µM (active) with NCI-H522; 0.188 µM (active) with Hs-578T; 0.01 µM (active) with UACC-257. Further, the GI50 is 0.01 µM (active) in the assay on OVCAR-3; 2.58 µM (inactive) in the assay on MOLT-4; 0.036 µM (active) in the assay on RPMI-8226; 2.06 µM (inactive) in the assay with MDA-MB-435; 3.06 µM (inactive) in the assay on NCI-H23; 2.65 µM (inactive) in the assay with CAKI-1. The GI50 in the assay on PC-3 is 0.01 µM (active); in the assay with NCI/ADR-RES, 0.0023 µM (active); with SR it was 0.00622 µM (active); with MCF7 it was 0.01 µM (active); with SK-OV-3, 2.75 µM (inactive); in the assay on UACC-62, 1.41 µM (inactive). For the same compound, the GI50 in the assay with NCI-H226 is 0.912 µM (active).
As to `O=Cc1ccc(OCc2cccc(COc3ccc(/C=N\Nc4ccc([N+](=O)[O-])cc4[N+](=O)[O-])cc3)n2)cc1`, the GI50 in the assay with A498, in the assay on SN12C, with M14, in the assay with NCI-H522, in the assay with Hs-578T and in the assay on EKVX was > 100 µM (inactive) in each case. Also, the GI50 is > 100 µM (inactive) with UACC-257; > 100 µM (inactive) in the assay on OVCAR-3; 33.9 µM (inactive) with MOLT-4; > 100 µM (inactive) in the assay with RPMI-8226; > 100 µM (inactive) in the assay with MDA-MB-435; > 100 µM (inactive) in the assay on NCI-H23. In addition, the GI50 in the assay on CAKI-1 is > 100 µM (inactive); in the assay with PC-3, > 100 µM (inactive); in the assay on NCI/ADR-RES it was > 100 µM (inactive); in the assay with SR, 22.1 µM (inactive); with MCF7, > 100 µM (inactive); in the assay on UACC-62, > 100 µM (inactive). Further, the GI50 in the assay with NCI-H226 is > 100 µM (inactive).
`O=C(c1cc(Cl)cc(Cl)c1)N(C(=S)OC12CC3CC(CC(C3)C1)C2)c1ccccc1`: the GI50 in the assay on A498 was 34.9 µM (inactive); in the assay with SN12C, 36.5 µM (inactive); with M14, 22.7 µM (inactive); with NCI-H522, 16 µM (inactive); in the assay on Hs-578T, 48.9 µM (inactive); in the assay on EKVX, 21.8 µM (inactive). Besides, the GI50 is 43.3 µM (inactive) in the assay with UACC-257; 45.3 µM (inactive) in the assay with OVCAR-3; 42.2 µM (inactive) with MDA-MB-435; 36.1 µM (inactive) with NCI-H23; 42.1 µM (inactive) in the assay on CAKI-1; 35.2 µM (inactive) in the assay on PC-3. Further, the GI50 in the assay on NCI/ADR-RES is 37.3 µM (inactive); in the assay on SR, 43.1 µM (inactive); with MCF7, 30.1 µM (inactive); with SK-OV-3, 32.5 µM (inactive); with UACC-62, 32.6 µM (inactive); in the assay with NCI-H226, 35.5 µM (inactive).
For the compound `NCCSSCCN` [CYSTAMINE HYDROCHLORIDE], the GI50 in the assay on A498, in the assay on SN12C, with M14, in the assay on NCI-H522, in the assay on Hs-578T and in the assay on EKVX was > 100 µM (inactive) in each case. In addition, the GI50 in the assay with OVCAR-3, with MOLT-4, with RPMI-8226, in the assay on MDA-MB-435, in the assay with NCI-H23 and in the assay with CAKI-1 was > 100 µM (inactive) throughout. Also, the GI50 with PC-3, with NCI/ADR-RES, in the assay on SR, in the assay on MCF7, in the assay on SK-OV-3 and in the assay with UACC-62 was > 100 µM (inactive) each time. Besides, the GI50 with NCI-H226 was > 100 µM (inactive).
For `O=C(CSc1nc2ccc(I)cc2c(=O)n1Cc1ccccc1)Nc1ccccc1`, the GI50 is 15.6 µM (inactive) in the assay with A498; 19.6 µM (inactive) in the assay on SN12C; 52.1 µM (inactive) in the assay on M14; 16 µM (inactive) in the assay on NCI-H522; 3.65 µM (inactive) with Hs-578T; 3.55 µM (inactive) with EKVX. Moreover, the GI50 in the assay with OVCAR-3 was 10.8 µM (inactive); in the assay on MOLT-4, > 100 µM (inactive); in the assay with RPMI-8226, 88.3 µM (inactive); in the assay on MDA-MB-435, > 100 µM (inactive); in the assay on NCI-H23, 69.2 µM (inactive); in the assay with CAKI-1, 12.9 µM (inactive). Moreover, the GI50 in the assay on PC-3 was 11.4 µM (inactive); in the assay with NCI/ADR-RES it was 13.8 µM (inactive); with SR, 11.2 µM (inactive); in the assay with MCF7, 50.6 µM (inactive); in the assay on SK-OV-3 it was 12.1 µM (inactive); in the assay on UACC-62 it was 46.6 µM (inactive). In the assay with NCI-H226, the GI50 was 11.9 µM (inactive).
